Patent publication US20160256560A1, “Environmentally Sensitive Compositions” (priority 2010, published 2016)

Assay: Solubility / aggregation of pHLIP variants at pH 8

Q: With `CC[C@H](C)[C@H](NC(=O)[C@@H]1CCCN1C(=O)[C@H](CC(N)=O)NC(=O)[C@H](CCC(N)=O)NC(=O)[C@H](CCC(=O)O)NC(=O)CNC(=O)CN)C(=O)N[C@@H](Cc1ccc(O)cc1)C(=O)N[C@@H](Cc1c[nH]c2ccccc12)C(=O)N[C@@H](C)C(=O)N[C@@H](CCC(N)=O)C(=O)N[C@@H](Cc1ccc(O)cc1)C(=O)N[C@@H](C)C(=O)N[C@@H](CC(=O)O)C(=O)N[C@@H](Cc1c[nH]c2ccccc12)C(=O)N[C@@H](CC(C)C)C(=O)N[C@@H](Cc1ccccc1)C(=O)N[C@H](C(=O)N[C@H](C(=O)N1CCC[C@H]1C(=O)N[C@@H](CC(C)C)C(=O)N[C@@H](CC(C)C)C(=O)N[C@@H](CC(C)C)C(=O)N[C@@H](CC(C)C)C(=O)N[C@@H](CC(=O)O)C(=O)N[C@@H](CC(C)C)C(=O)N[C@@H](C)C(=O)N[C@@H](CC(C)C)C(=O)N[C@@H](CC(C)C)C(=O)N[C@H](C(=O)N[C@@H](CC(=O)O)C(=O)N[C@@H](C)C(=O)N[C@@H](CC(=O)O)C(=O)N[C@@H](CCC(=O)O)C(=O)NCC(=O)N[C@H](C(=O)N[C@@H](CS)C(=O)NCC(=O)O)[C@@H](C)O)C(C)C)[C@@H](C)O)[C@@H](C)O` [R11Q] as the compound, how does the “Notes: solubility” value read?
A: The value was “Has better solubility”.
